Data: PubChem BioAssay AID489023 (Sanford-Burnham Center for Chemical Genomics, 2010)
Calls of active or inactive are those of the source. How the calls were made is not given here.

These compounds were tested on 697B cells, BCR-induced NF-kB luciferase reporter luminescence (assay: B-cell receptor NF-kB reporter inhibition – 697B cells, luciferase luminescence, dose response (AID 489023)).

SMILES	IC50
CC(C)(C)c1ccc(-c2noc(CCC(=O)NCC3CCCO3)n2)cc1 (stereo not drawn)	0.21 µM
COc1ccc(C(=O)Nc2nnc(Cc3cccs3)s2)cc1OC	> 80 µM (inactive)
COc1ccccc1/C=C1\SC(=S)N(CCC(=O)Nc2cc(C)on2)C1=O	36.8 µM (inactive)
Cc1ccc(/C=C2\SC(=S)N(CCCC(=O)NNC(=O)c3ccccc3O)C2=O)cc1	1.26 µM
Cc1cc(C)cc(NC(=O)c2nnn(Cc3cc(C)ccc3C)c2N)c1	> 80 µM (inactive)
CCNC(=O)CCc1nc(-c2ccc(C(C)(C)C)cc2)no1	< 0.16 µM
COc1ccc(-n2c(-c3ccc(Br)cc3)c[n+]3c2CCc2ccccc2-3)cc1	> 80 µM (inactive)
N=c1ccn2c(n1)O[C@H]1[C@H](O)[C@@H](CO)O[C@H]12	< 0.16 µM
CCN1C(=O)c2cccc3c(S(=O)(=O)N4CCC(C)CC4)ccc1c23	49.3 µM (inactive)
CCCN1C(=O)/C(=C/c2c(N3CCNC(=O)C3CC(=O)OCC)nc3c(C)cccn3c2=O)SC1=S (stereo not drawn)	5.89 µM
CCOC(=O)C1CCN(c2ncnc3c2cnn3-c2ccc(Cl)cc2)CC1	0.82 µM
O=C(CCCN1C(=O)S/C(=C\C=C\c2ccccc2)C1=O)Nc1ccc(O)cc1	2.99 µM
COc1ccc(NS(=O)(=O)c2ccc(-c3coc(C)n3)cc2)cc1OC	> 80 µM (inactive)
COc1ccc(-c2csc3nc(-c4cccnc4)nc(N4CCC(C(N)=O)CC4)c23)cc1OC	44.2 µM (inactive)
CCCNC(=O)c1ccc(N2CCC3(CC2)CC(c2cccc(Br)c2)=NO3)c(NC(=O)c2ccc(Cl)c([N+](=O)[O-])c2)c1	> 80 µM (inactive)
Cc1c(CCC(=O)NCCCn2ccnc2)c(=O)oc2c(C)c3oc4c(c3cc12)CCCC4	30.4 µM (inactive)
CCn1c(=O)c2cc(C(=O)NCc3cccs3)sc2c2ccccc21	> 80 µM (inactive)
Cc1cccc(C(=O)Nc2ccc(CC(=O)O)cc2)c1	24.1 µM (inactive)
O=C(Cc1cccc2ccccc12)Nc1ccc(-c2cc3ccccc3oc2=O)cc1	< 0.16 µM
O=c1cccc2c1c1cc[nH]c3ccc(=O)n2c31	2.1 µM
COc1ccc(/C=C2\SC(=S)N(CCC(=O)Nc3ccc(C(=O)O)cc3)C2=O)cc1OC	> 80 µM (inactive)
CCCS(=O)(=O)Nc1cccc(-c2ccc3nnc(C)n3n2)c1	> 80 µM (inactive)
COc1ccc(-c2ccoc2)cc1[C@H]1[C@H]2C=CC[C@@H](C)[C@@H]2C(=O)N1Cc1ccccc1	> 80 µM (inactive)
O=C(Nc1ccc(NC(=O)c2cc3ccccc3o2)cc1)c1ccc2c(c1)OCCO2	0.3 µM
Cc1ccc(-n2c(-c3ccccc3)c[n+]3c2CCc2ccccc2-3)c(C)c1	56.7 µM (inactive)

SMILES	IC50
Cc1ccc(C)c(-n2nnnc2Sc2nnnn2-c2ccccc2)c1	1.32 µM
Cc1ccc(C(=O)OCC(=O)N(CC(C)C)c2c(N)n(Cc3ccccc3)c(=O)[nH]c2=O)o1	20.6 µM (inactive)
Cn1c(=O)cc(OCCCC(=O)NC2CCCC2)c2ccccc21	34.4 µM (inactive)
C#CCN(Cc1ccccc1)S(=O)(=O)C=C	21.3 µM (inactive)
CC1Cc2ccccc2N1S(=O)(=O)c1cnc(Cl)c(Br)c1 (stereo not drawn)	72.9 µM (inactive)
Cc1c(CCC(=O)N2CCC[C@H]2C(=O)O)c(=O)oc2cc3oc4c(c3cc12)CCCC4	> 80 µM (inactive)
CNC(=O)CCc1nc(-c2ccc(C(C)(C)C)cc2)no1	< 0.16 µM
Cc1nn(C(C)(C)C)c(OC(=O)c2ccc(Br)o2)c1Sc1ccccc1	> 80 µM (inactive)
COc1ccc(/C=C2/SC(=S)N(CCCC(=O)Nc3ccc(O)cc3)C2=O)cc1OC	> 80 µM (inactive)
COc1ccc(C(=O)Nc2nnc(SCC(=O)Nc3ccc(NC(C)=O)cc3)s2)c(OC)c1	> 80 µM (inactive)
Cc1c(CCC(=O)O)c(=O)oc2cc3oc4c(c3cc12)CCCC4	0.27 µM
CCc1cccc(NC(=O)c2ccc(CNc3c(N4CCCC4)c(=O)c3=O)cc2)c1	> 80 µM (inactive)
CCc1ccc(/C=C2\SC(=S)N(CCC(=O)Nc3cc(C)on3)C2=O)cc1	19.3 µM
O=C(CCCc1nc(-c2ccccc2Cl)no1)NC1CCCC1	1.25 µM
N=c1c2c(n(Cc3cccc(Cl)c3)c3c1CCC3)CCCC2	59.9 µM (inactive)
Cc1ccc(C)c(OCc2ccc(C(=O)NN)o2)c1	> 80 µM (inactive)
CN(C)CCCN=Cc1c(-c2ccccc2)[nH]n(-c2nc3ccccc3s2)c1=O	5.81 µM
COc1ccc(-c2noc(N3CCC(C(=O)Nc4cccc(OC)c4)CC3)n2)cc1	> 80 µM (inactive)
CC(C)(C)c1ccc(-c2noc(CCC(=O)N3CCOCC3)n2)cc1	51.6 µM (inactive)
CC(=O)Nc1ccc(Nc2nc(-c3sc(NC(C)=O)nc3C)cs2)cc1	2.12 µM
O=[N+]([O-])c1ccc(Sc2cc[n+]([O-])c3ccccc23)c([N+](=O)[O-])c1	0.59 µM
CC(C)C[C@@H](N)c1nnc(SCC(=O)c2ccc(Cl)cc2)o1	47.6 µM (inactive)
CC1CCN(C(=O)CCCOc2cc(=O)n(C)c3ccccc23)CC1	> 80 µM (inactive)
Cc1nn(C)c(C)c1CN(C)S(=O)(=O)c1ccc2ccccc2c1	> 80 µM (inactive)
COCCCn1c(=O)/c(=C\c2cccc(OC)c2OC)s/c1=C(/C#N)C(=O)Nc1ccc(C(=O)O)cc1	> 80 µM (inactive)

SMILES	IC50
CCC(C)NC(=O)c1c(N)n(/N=C/c2ccccn2)c2nc3ccccc3nc12 (stereo not drawn)	23.2 µM (inactive)
CCOCCCNc1nc2c(C)cccn2c(=O)c1/C=C1\SC(=S)N(C(C)CC)C1=O (stereo not drawn)	36.3 µM (inactive)
COc1ccc(NS(=O)(=O)c2cc(NC(=O)c3cc(=O)c4ccccc4o3)ccc2OC)cc1	> 80 µM (inactive)
CCCNC(=O)CSCc1nc(-c2ccc(SC)cc2)oc1C	31.6 µM (inactive)
O=C1CCCc2c1[nH]c1ccc(CN3CCCCC3)cc21	> 80 µM (inactive)
COc1ccc(-c2ccc(OC)c([C@H]3[C@H]4C=CC[C@@H](C)[C@@H]4C(=O)N3Cc3ccccc3)c2)cc1	> 80 µM (inactive)
COc1ccc(/C=C2/SC(=S)N(CCCC(=O)Nc3ccc(O)cc3)C2=O)cc1	0.44 µM
ClCc1nnc(-c2ccccc2)o1	12.7 µM
CC1CC(C)CN(S(=O)(=O)c2ccc(C(=O)NCCCn3ccnc3)cc2)C1 (stereo not drawn)	5.07 µM
CC(=O)c1cccc(S(=O)(=O)Nc2cc(C(F)(F)F)ccc2N2CCOCC2)c1	> 80 µM (inactive)
Cc1cnc(NC(=O)Nc2ccc(Cl)cc2)s1	> 80 µM (inactive)
CCC(CO)Oc1cc(NCc2ccccc2O)c2ncn(C(C)C)c2c1 (stereo not drawn)	> 80 µM (inactive)
CCc1ccc(/C=C2\SC(=S)N(CCCC(=O)Nc3ccccn3)C2=O)cc1	0.55 µM
CN1C(=O)c2cccc3c(S(=O)(=O)Nc4ccccc4F)ccc1c23	57.4 µM (inactive)
Oc1[nH]c2ccccc2c1N=Nc1nc(Nc2ccccc2)nc(N2CCOCC2)n1	1.36 µM
Cn1c(=O)n(C)c2cc(NC(=O)CSc3nnc(-c4ccccc4O)n3-c3ccccc3)ccc21	> 80 µM (inactive)
CCOc1ccc(-n2c(SCC(=O)Nc3ccc4c(c3)OCCO4)nc3c(c2=O)SCC3)cc1	11.7 µM
COc1ccc(CC(=O)Nc2cccc(-c3ccc4nnc(C)n4n3)c2)cc1	71.7 µM (inactive)
COc1cc(-c2nc3n(n2)C(c2ccc(F)cc2)C2=C(CCCC2=O)N3)cc(OC)c1OC (stereo not drawn)	65.5 µM (inactive)
O=C(CCCN1C(=O)/C(=C/c2ccccc2Cl)SC1=S)NNC(=O)c1ccc(Cl)cc1	30.7 µM (inactive)
COc1ccc(/C=N\NC(=O)c2sccc2C)cc1Cn1nc(C)cc1C	55.9 µM (inactive)
CCn1c(=O)cc(SCC(=O)N2CCC3(CC2)OCCO3)c2ccccc21	> 80 µM (inactive)
NC(=S)N=Nc1c(O)n(Cc2ccccc2)c2ccccc12	16.3 µM
Cc1ccc(/C=C2\SC(=S)N(CCC(=O)NNC(=O)c3ccncc3)C2=O)cc1	> 80 µM (inactive)
COc1ccc(C(=O)Nc2cccc(NC(=O)c3ccc(OC)c(OC)c3)n2)cc1OC	3.64 µM

SMILES	IC50
CCN1C(=O)c2cccc3c(S(=O)(=O)Nc4ccccc4)ccc1c23	40.4 µM (inactive)
CCOc1ccc(-c2nc(CSCC(=O)NCc3ccco3)c(C)o2)cc1	0.32 µM
Cc1cc(C)c2nc(NC(=O)C3CSC4(C)CCC(=O)N34)sc2c1 (stereo not drawn)	32.2 µM (inactive)
CN(CC1CCCO1)S(=O)(=O)c1ccc(C(=O)Nc2nc3cc4c(cc3s2)OCO4)cc1 (stereo not drawn)	> 80 µM (inactive)
O=C(Nc1nc2nc(-c3ccccc3)cc(-c3ccccc3)n2n1)c1ccco1	48.3 µM (inactive)
O=C(Nc1nc(-c2ccccc2)cs1)c1ccccc1NS(=O)(=O)c1ccc(F)cc1	21.7 µM (inactive)
CN(C)c1cc[n+](Cc2c(Cl)cccc2Cl)cc1	> 80 µM (inactive)
O=C(Nc1cccc(Br)c1)c1ccc2c(c1)SC1=NS(=O)(=O)CCN12	15.7 µM
COc1cc2c3c(c1)c(N=NC(N)=S)c(O)n3C(C)(C)C=C2C	> 80 µM (inactive)
Cc1nnc2c3ccccc3c(-c3ccccc3)nn12	> 80 µM (inactive)
COc1ccc(/C=C2/SC(=S)N(CCCC(=O)Nc3cccc(O)c3)C2=O)cc1	3.88 µM
CCOc1ccc(/C=C2\SC(=S)N(CCC(=O)Nc3cccc(C(=O)O)c3)C2=O)cc1	8.87 µM
COc1ccc(C(C(=O)NC2CCCCC2)N(C(=O)CCl)c2ccc(OC)cc2)cc1 (stereo not drawn)	0.57 µM
CCN(CC)CCCN=Cc1c(-c2ccccc2)[nH]n(-c2nc3ccccc3s2)c1=O	17.9 µM
COc1cccc(-c2noc(CCC(=O)NCCc3ccccc3)n2)c1	5.65 µM
CCC(=O)N(C1=C(NC)C(=O)c2ccccc2C1=O)C(C)C	> 80 µM (inactive)
COc1ccc(C(=O)N/N=C/c2ccc(OC)c(CN3CCCc4ccccc43)c2)cc1	> 80 µM (inactive)
Cn1c(=O)cc(OCC(=O)N2CCC3(CC2)OCCO3)c2ccccc21	67.5 µM (inactive)
CCOc1ccc(-c2cc(CCCC(=O)NCc3ccc(C)cc3)no2)cc1	> 80 µM (inactive)
Cc1[nH]c2ccccc2c1/C=N/Nc1nc(Nc2ccccc2)nc(N2CCOCC2)n1	3.35 µM
COc1cc(-c2[nH]nc3c2C(c2ccco2)C(C#N)=C(N)O3)cc(OC)c1OC (stereo not drawn)	> 80 µM (inactive)
Cc1cc(OC(=O)c2ccccc2Cl)cc(=O)n1C	> 80 µM (inactive)
CCN(CC)c1ccc(/C=C2/C(=O)ON=C2C)cc1	21.2 µM (inactive)
